Measured values from US20250075278A1, “EPIGENTIC REGULATION AND CO-TARGETING APPROACHES OF PSMA IN PROSTRATE CANCER” (Fred Hutchinson Cancer Center, priority 2023, published 2025).
Entries after “also recorded” stand apart in the source; their conditions may differ.

Tests used:
LuCaP 35CR xenografts = assay: PSMA IHC of LuCaP 35CR PDX tumors grown in treated mice; format: in vivo; conditions: LuCaP 35CR PDX in castrated CB17SCID mice, 75 mg/kg/day, 21 days, vs 30% Captisol control
Protocol: In vivo experiments. All surgical procedures were performed under isoflurane anesthesia. LuCaP 35CR tumors (1 mm3) were surgically implanted s.c. into castrated male CB17SCID mice (The Jackson Laboratory) (59). When tumors reached a volume between 150 mm3 and 200 mm3, mice were administered CUDC-907 (Curis Inc.), a combined pan-HDAC/PI3K inhibitor dissolved in 30% captisol (Thermo Fisher Scientific). Treated mice received 75 mg/kg/day for 5 days, followed by 2 days off treatment, repeated for a total of 21 days or until the diameter of the tumor reached 2 cm. The same volume of 30% captisol, in the same manner as described above, was used to treat the vehicle group. […]
IHC staining. […] Immunocomplexes were detected using PV poly-HRP anti-mouse IgG (Leica Microsystems, PV6114) with DAB as the chromogen. […] Immunocomplexes were detected using the Biotin XX Tyramide SuperBoost kit (Invitrogen, B40931) per manufacturer's protocol with DAB as the chromogen. […] Immunocomplexes were detected using Tyramide Signal Amplification system from Thermo Fisher Scientific. […] Membranous PSMA expression was scored in a blinded manner by 2 pathologists, whereby the optical density level (“0” for no brown color, “1” for faint and fine brown chromogen deposition, and “2” for prominent chromogen deposition) was multiplied by the percentage of cells at each staining level, resulting in a total score range of 0-200. […]

[1] = system: DU145, LAPC4, and LuCaP 35CR CL; assay: PSMA protein expression in cell line models treated with epigenetic modifiers (flow cytometry and fluorescence immunocytochemistry); format: cell-based; conditions: for PSMA expression after HDACi treatment: in vitro and in vivo
Protocol: Cell lines and in vitro experiments. […] All drugs were diluted in DMSO.
To this end, 3 cell line models (DU145, LAPC4, and LuCaP 35CR CL) were treated with the DNMTi decitabine and pan-HDACi (panobinostat, CUDC-907, vorinostat) and applied 2 orthogonal approaches (flow cytometry and fluorescence immunocytochemistry) and 2 separate monoclonal antibodies (3E6 and LNI-17) to measure PSMA protein expression.

COc1ccc(-c2nc(N3CCOCC3)c3sc(CN(C)c4ncc(C(=O)NO)cn4)cc3n2)cn1 [CUDC-907]
PSMA expression in tumors (IHC, PSMA-positive cells) (LuCaP 35CR xenografts): significantly increased PSMA expression; also recorded: enhanced PSMA expression | PSMA expression after HDACi treatment [1]: significant upregulation of PSMA expression

O=C(CNc1cccc2c1C(=O)N(C1CCC(=O)NC1=O)C2=O)NCCCOc1ccc(NC(=O)c2ccc(CN(C(=O)c3ccc4c(c3)OCC(=O)N4)C3CC3)cc2)nc1 (stereo not shown) [MS159]
PSMA re-expression (density plot, FIG. 5H) ([1]; 10 μM, cell line not stated): PSMA re-expression

O=C(CCCCCCC(=O)Nc1ccccc1)NO [vorinostat]
PSMA expression after HDACi treatment [1]: significant upregulation of PSMA expression
